This experiment deals with T1, c-Met kinase (recombinant c-Met) (Homo sapiens, UniProt P08581).
T1 construct: 0.27 nM recombinant c-Met
T1 sequence (P08581 25-1390): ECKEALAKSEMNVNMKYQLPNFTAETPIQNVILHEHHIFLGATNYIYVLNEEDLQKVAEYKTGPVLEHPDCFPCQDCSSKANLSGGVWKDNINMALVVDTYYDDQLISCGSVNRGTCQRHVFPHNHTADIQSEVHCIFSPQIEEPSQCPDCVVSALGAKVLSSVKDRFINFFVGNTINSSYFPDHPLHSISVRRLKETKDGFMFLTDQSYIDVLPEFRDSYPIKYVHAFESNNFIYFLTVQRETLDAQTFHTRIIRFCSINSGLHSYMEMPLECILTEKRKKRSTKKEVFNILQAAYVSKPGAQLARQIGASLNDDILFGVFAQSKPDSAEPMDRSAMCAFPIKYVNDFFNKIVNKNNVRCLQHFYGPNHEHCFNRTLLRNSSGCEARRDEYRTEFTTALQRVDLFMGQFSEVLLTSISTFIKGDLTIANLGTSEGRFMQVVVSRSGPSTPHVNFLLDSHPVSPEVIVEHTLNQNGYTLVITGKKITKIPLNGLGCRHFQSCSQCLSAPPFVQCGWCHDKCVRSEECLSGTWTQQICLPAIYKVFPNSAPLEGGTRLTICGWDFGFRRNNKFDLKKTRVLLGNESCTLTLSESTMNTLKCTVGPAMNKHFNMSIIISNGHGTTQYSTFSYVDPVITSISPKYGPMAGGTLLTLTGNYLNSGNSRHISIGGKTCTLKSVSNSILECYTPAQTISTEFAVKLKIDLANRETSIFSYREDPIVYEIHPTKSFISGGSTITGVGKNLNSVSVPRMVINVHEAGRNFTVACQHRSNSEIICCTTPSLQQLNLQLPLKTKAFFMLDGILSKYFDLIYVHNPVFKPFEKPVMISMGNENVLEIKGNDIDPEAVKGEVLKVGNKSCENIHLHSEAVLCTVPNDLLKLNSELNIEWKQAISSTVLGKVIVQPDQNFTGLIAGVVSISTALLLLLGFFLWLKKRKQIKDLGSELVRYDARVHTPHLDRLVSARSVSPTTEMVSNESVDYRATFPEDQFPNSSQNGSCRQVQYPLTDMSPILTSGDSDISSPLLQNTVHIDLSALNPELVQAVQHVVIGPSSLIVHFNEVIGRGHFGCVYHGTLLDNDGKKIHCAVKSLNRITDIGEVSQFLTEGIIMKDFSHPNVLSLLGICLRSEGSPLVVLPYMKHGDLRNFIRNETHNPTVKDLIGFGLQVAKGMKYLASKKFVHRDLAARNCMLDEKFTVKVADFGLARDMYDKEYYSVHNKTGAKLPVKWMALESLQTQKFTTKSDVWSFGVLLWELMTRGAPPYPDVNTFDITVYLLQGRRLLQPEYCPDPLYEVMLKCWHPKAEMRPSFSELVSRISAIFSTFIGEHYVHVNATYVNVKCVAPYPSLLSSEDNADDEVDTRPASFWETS
Nature of the experiment: In vitro kinase assay I (homogeneous time-resolved fluorescence tyrosine kinase assay). In kind it is biochemical. In a few lines: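 Biotinylated peptide (0.5 μM) phosphorylated by 0.2 nM recombinant c-Met with 50 μM MgATP, 60 min at room temperature, pH 7.4, 5% DMSO. EDTA stop; HTRF read with Eu-anti-phosphotyrosine antibody and streptavidin-APC. IC50 from 4-parameter logistic fit.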
Usually IC50 stands for the concentration needed to halve the response being measured. As for `Cn1cc(-n2ccc(=O)c(Cc3cccc(-c4ncc(OCC(F)F)cn4)c3)n2)cn1` [Example 274, 3-{3-[5-(2,2-difluoroethoxy)pyrimidin-2-yl]benzyl}-1-(1-methyl-1H-pyrazol-4-yl)pyridazin-4(1H)-one], the concentration for half-maximal inhibition (IC50) was below 100 nM. In the case of `[2H]C([2H])([2H])C([2H])([2H])Oc1cnc(-c2cccc(Cc3nn(-c4cnn(C)c4)ccc3=O)c2)nc1` [Example 275, 3-[3-(5-ethoxypyrimidin-2-yl)benzyl]-1-(1-methyl-1H-pyrazol-4-yl)pyridazin-4(1H)-one-d5], the concentration for half-maximal inhibition (IC50) is below 100 nM. Turning to `Cn1cc(-n2ccc(=O)c(Cc3cccc(-c4ncc(OC5CCOCC5)cn4)c3)n2)cn1` [Example 277, 1-(1-methyl-1H-pyrazol-4-yl)-3-{3-[5-(tetrahydro-2H-pyran-4-yloxy)pyrimidin-2-yl]benzyl}pyridazin-4(1H)-one], the half-inhibitory concentration (IC50) was below 100 nM.

For `Cn1cc(-n2ccc(=O)c(Cc3cccc(-c4ncc(OCC5CC5)cn4)c3)n2)cn1` [Example 278, 3-{3-[5-(cyclopropylmethoxy)pyrimidin-2-yl]benzyl}-1-(1-methyl-1H-pyrazol-4-yl)pyridazin-4(1H)-one], the IC50 was below 100 nM. With `CN(C)C(=O)COc1cnc(-c2cccc(Cc3nn(-c4cnn(C)c4)ccc3=O)c2)nc1` [Example 279, N,N-dimethyl-2-{[2-(3-{[1-(1-methyl-1H-pyrazol-4-yl)-4-oxo-1,4-dihydropyridazin-3-yl]methyl}phenyl)pyrimidin-5-yl]oxy}acetamide] the figure was below 100 nM; with `Cn1cc(-n2ccc(=O)c(Cc3cccc(-c4ncc(OCC(=O)N5CCOCC5)cn4)c3)n2)cn1` [Example 280, 1-(1-methyl-1H-pyrazol-4-yl)-3-{3-[5-(2-morpholin-4-yl-2-oxoethoxy)pyrimidin-2-yl]benzyl}pyridazin-4(1H)-one], below 100 nM.

As for `Cc1nc(COc2cnc(-c3cccc(Cc4nn(-c5cnn(C)c5)ccc4=O)c3)nc2)no1` [Example 281, 3-(3-{5-[(5-methyl-1,2,4-oxadiazol-3-yl)methoxy]pyrimidin-2-yl}benzyl)-1-(1-methyl-1H-pyrazol-4-yl)pridazin-4(1H)-one], the IC50 was below 100 nM. On to `Cn1cc(-n2ccc(=O)c(Cc3cccc(-c4ncc(OCc5noc(C6CC6)n5)cn4)c3)n2)cn1` [Example 282, 3-(3-{5-[(5-cyclopropyl-1,2,4-oxadiazol-3-yl)methoxy]pyrimidin-2-yl}benzyl)-1-(1-methyl-1H-pyrazol-4-yl)pyridazin-4(1H)-one], for which the IC50 is below 100 nM. With `CC(C)c1nc(COc2cnc(-c3cccc(Cc4nn(-c5cnn(C)c5)ccc4=O)c3)nc2)no1` [Example 283, 3-[3-(5-{[5-(1-methylethyl)-1,2,4-oxadiazol-3-yl]methoxy}pyrimidin-2-yl)benzyl]-1-(1-methyl-1H-pyrazol-4-yl)pyridazin-4(1H)-one] the figure was below 100 nM; with `Cn1cc(-n2ccc(=O)c(Cc3cccc(-c4ncc(OCc5ccsn5)cn4)c3)n2)cn1` [Example 284, 3-{3-[5-(isothiazol-3-ylmethoxy)pyrimidin-2-yl]benzyl}-1-(1-methyl-1H-pyrazol-4-yl)pyridazin-4(1H)-one], below 100 nM; with `Cc1cc(COc2cnc(-c3cccc(Cc4nn(-c5cnn(C)c5)ccc4=O)c3)nc2)no1` [Example 285, 3-(3-{5-[(5-methylisoxazol-3-yl)methoxy]pyrimidin-2-yl}benzyl)-1-(1-methyl-1H-pyrazol-4-yl)pyridazin-4(1H)-one], below 100 nM.

For `Cc1cc(COc2cnc(-c3cccc(Cc4nn(-c5cnn(C)c5)ccc4=O)c3)nc2)on1` [Example 286, 3-(3-{5-[(3-methylisoxazol-5-yl)methoxy]pyrimidin-2-yl}benzyl)-1-(1-methyl-1H-pyrazol-4-yl)pyridazin-4(1H)-one], the concentration for half-maximal inhibition (IC50) was below 100 nM.

In the case of `Cn1cc(-n2ccc(=O)c(Cc3cccc(-c4ncc(OCC(=O)OC(C)(C)C)cn4)c3)n2)cn1` [Example 287, tert-butyl [2-(3-{[1-(1-methyl-1H-pyrazol-4-yl)-4-oxo-1,4-dihydropyridazin-3-yl]methyl}phenyl)pyrimidin-5-yl]oxyacetate], the half-inhibitory concentration (IC50) is below 100 nM. Regarding `CCn1cc(-n2ccc(=O)c(Cc3cccc(-c4ncc(OCC5CCN(C(=O)OC(C)(C)C)CC5)cn4)c3)n2)cn1` [Example 288, tert-butyl 4-({[2-(3-{[1-(1-ethyl-1H-pyrazol-4-yl)-4-oxo-1,4-dihydropyridazin-3-yl]methyl}phenyl)pyrimidin-5-yl]oxy}methyl)piperidine-1-carboxylate], the half-maximal inhibitory concentration (IC50) was below 100 nM. The figure for `CCn1cc(-n2ccc(=O)c(Cc3cccc(-c4ncc(OC5CN(C(=O)OC(C)(C)C)C5)cn4)c3)n2)cn1` [Example 289, tert-butyl 3-{[2-(3-{[1-(1-ethyl-1H-pyrazol-4-yl)-4-oxo-1,4-dihydropyridazin-3-yl]methyl}phenyl)pyrimidin-5-yl]oxy}azetidine-1-carboxylate] is below 100 nM; for `CCn1cc(-n2ccc(=O)c(Cc3cccc(-c4ncc(OC(C)C)cn4)c3)n2)cn1` [Example 305, 1-(1-ethyl-1H-pyrazol-4-yl)-3-[3-(5-isopropoxypyrimidin-2-yl)benzyl]pyridazin-4(1H)-one] it is below 100 nM. `CCn1cc(-n2ccc(=O)c(Cc3cccc(-c4ncc(OCC(F)F)cn4)c3)n2)cn1` [Example 306, 3-{3-[5-(2,2-difluoroethoxy)pyrimidin-2-yl]benzyl}-1-(1-ethyl-1H-pyrazol-4-yl)pyridazin-4(1H)-one]: the IC50 is below 100 nM. Turning to `CCn1cc(-n2ccc(=O)c(Cc3cccc(-c4ncc(OCCO)cn4)c3)n2)cn1` [Example 307, 1-(1-ethyl-1H-pyrazol-4-yl)-3-{3-[5-(2-hydroxyethoxy)pyrimidin-2-yl]benzyl}pyridazin-4(1H)-one], the IC50 is below 100 nM.

Take `CCn1cc(-n2ccc(=O)c(Cc3cccc(-c4ncc(OCCN5CCOCC5)cn4)c3)n2)cn1` [Example 312, 1-(1-ethyl-1H-pyrazol-4-yl)-3-{3-[5-(2-morpholin-4-ylethoxy)pyrimidin-2-yl]benzyl}pyridazin-4(1H)-one]: the IC50 is below 100 nM. On to `CCn1cc(-n2ccc(=O)c(Cc3cccc(-c4ncc(OCc5cc(C)no5)cn4)c3)n2)cn1` [Example 313, 1-(1-ethyl-1H-pyrazol-4-yl)-3-(3-{5-[(3-methylisoxazol-5-yl)methoxy]primidin-2-yl}benzyl)pyridazin-4(1H)-one], for which the 50% inhibitory concentration (IC50) is below 100 nM. For `CCn1cc(-n2ccc(=O)c(Cc3cccc(-c4ncc(OCc5noc(C)n5)cn4)c3)n2)cn1` [Example 314, 1-(1-ethyl-1H-pyrazol-4-yl)-3-(3-{5-[(5-methyl-1,2,4-oxadiazol-3-yl)methoxy]pyrimidin-2-yl}benzyl)pyridazin-4(1H)-one], the IC50 was below 100 nM. Turning to `CCn1cc(-n2ccc(=O)c(Cc3cccc(-c4ncc(OCCn5cccn5)cn4)c3)n2)cn1` [Example 315, 1-(1-ethyl-1H-pyrazol-4-yl)-3-(3-{5-[2-(1H-pyrazol-1-yl)ethoxy]pyrimidin-2-yl}benzyl)pyridazin-4(1H)-one], the 50% inhibitory concentration (IC50) was below 100 nM. The figure for `CCn1cc(-n2ccc(=O)c(Cc3cccc(-c4ncc(OCC5(C)COC5)cn4)c3)n2)cn1` [Example 316, 1-(1-ethyl-1H-pyrazol-4-yl)-3-(3-{5-[(3-methyloxetan-3-yl)methoxy]pyrimidin-2-yl}benzyl)pyridazin-4(1H)-one] is below 100 nM; for `COCCOc1cnc(-c2cccc(Cc3nn(-c4ccc(F)c(F)c4)ccc3=O)c2)nc1` [Example 317, 1-(3,4-difluorophenyl)-3-{3-[5-(2-methoxyethoxy)pyrimidin-2-yl]benzyl}pyridazin-4(1H)-one] it is below 100 nM. With `COCCOc1cnc(-c2cccc(Cc3nn(-c4cc(F)c(F)c(F)c4)ccc3=O)c2)nc1` [Example 318, 3-{3-[5-(2-methoxyethoxy)pyrimidin-2-yl]benzyl}-1-(3,4,5-trifluorophenyl)pyridazin-4(1H)-one], the 50% inhibitory concentration (IC50) is below 100 nM. In the case of `COCCOc1cnc(-c2cccc(Cc3nn(-c4cccc(C#N)c4)ccc3=O)c2)nc1` [Example 319, 3-[3-{3-[5-(2-methoxyethoxy)pyrimidin-2-yl]benzyl}-4-oxopyridazin-1(4H)-yl]benzonitrile], the concentration for half-maximal inhibition (IC50) was below 100 nM. `COCCCOc1cnc(-c2cccc(Cc3nn(-c4ccc(F)c(F)c4)ccc3=O)c2)nc1` [Example 320, 1-(3,4-difluorophenyl)-3-{3-[5-(3-methoxypropoxy)pyrimidin-2-yl]benzyl}pyridazin-4(1H)-one]: the IC50 was below 100 nM. With `CCOCCOc1cnc(-c2cccc(Cc3nn(-c4ccc(F)c(F)c4)ccc3=O)c2)nc1` [Example 321, 1-(3,4-difluorophenyl)-3-{3-[5-(2-ethoxyethoxy)pyrimidin-2-yl]benzyl}pyridazin-4(1H)-one], the IC50 is below 100 nM. The figure for `COCCCOc1cnc(-c2cccc(Cc3nn(-c4cccc(C#N)c4)ccc3=O)c2)nc1` [Example 322, 3-[3-{3-[5-(3-methoxypropoxy)pyrimidin-2-yl]benzyl}-4-oxopyridazin-1(4H)-yl]benzonitrile] is below 100 nM. For the compound `CCOCCOc1cnc(-c2cccc(Cc3nn(-c4cccc(C#N)c4)ccc3=O)c2)nc1` [Example 323, 3-[3-{3-[5-(2-ethoxyethoxy)pyrimidin-2-yl]benzyl}-4-oxopyridazin-1(4H)-yl]benzonitrile], the half-inhibitory concentration (IC50) was below 100 nM. On to `COCCCOc1cnc(-c2cccc(Cc3nn(-c4cc(F)c(F)c(F)c4)ccc3=O)c2)nc1` [Example 324, 3-{3-[5-(3-methoxypropoxy)pyrimidin-2-yl]benzyl}-1-(3,4,5-trifluorophenyl)pyridazin-4(1H)-one], for which the IC50 is below 100 nM. Regarding `CCOCCOc1cnc(-c2cccc(Cc3nn(-c4cc(F)c(F)c(F)c4)ccc3=O)c2)nc1` [Example 325, 3-{3-[5-(2-ethoxyethoxy)pyrimidin-2-yl]benzyl}-1-(3,4,5-trifluorophenyl)pyridazin-4(1H)-one], the half-inhibitory concentration (IC50) is below 100 nM.

(Values after patent US20120264735A1 (priority 2009, published 2012).)
